Reference: patent publication US20210179578A1, “OX1 ANTAGONISTS” (Heptares Therapeutics Limited, priority 2017, published 2021)

Columns and labels:
[1] = target: T1, human OX1 receptor (Homo sapiens, UniProt O43613); assay: IPone accumulation assay, CHO cells expressing OX1 (antagonism of orexin A); type: cell-based; settings: IPone accumulation, CHO human OX1, orexin A EC80 challenge (~20 nM); read-out: fpKb average OX1 (converted)
T1 sequence (O43613 1-425): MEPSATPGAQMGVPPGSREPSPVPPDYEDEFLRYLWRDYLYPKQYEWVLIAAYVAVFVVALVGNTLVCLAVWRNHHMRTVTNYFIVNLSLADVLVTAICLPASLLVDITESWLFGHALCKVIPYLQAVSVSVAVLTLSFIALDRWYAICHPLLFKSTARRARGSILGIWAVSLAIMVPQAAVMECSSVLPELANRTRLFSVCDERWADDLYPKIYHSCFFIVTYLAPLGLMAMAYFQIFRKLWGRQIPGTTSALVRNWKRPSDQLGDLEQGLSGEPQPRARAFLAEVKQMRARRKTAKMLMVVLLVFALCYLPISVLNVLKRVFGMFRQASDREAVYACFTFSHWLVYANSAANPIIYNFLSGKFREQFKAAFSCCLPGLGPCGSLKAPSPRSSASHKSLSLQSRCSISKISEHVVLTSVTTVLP
Experimental: Generation of CHO stable cell lines expressing the human OX1R and OX2R. Stable cell lines for the human OX1R and OX2R receptors were generated through the transfection of CHO cells using the transfection reagent Genejuice (Novagen number 70967) and cDNA coding for either the human OX1R or OX2R. Cells were cultured in Sigma Nutrient Mixture F-12 Ham media (catalog number N6658) supplemented with 10% heat-inactivated FBS. Forty-eight hours after transfection, cells were harvested and placed under geneticin selection by culturing in Sigma Nutrient Mixture F-12 Ham media supplemented with 10% heat-inactivated FBS and geneticin (ThermoFisher Catalog number: 10131035). Selection of the final stable clone for each receptor was made on the basis of receptor expression, assay signal to noise and robustness though increasing passage. Selected clones for the human OX1R and OX2R were then frozen down into liquid nitrogen using Cell Freezing Medium-DMSO (Sigma-Aldrich catalog number: C6164). IPone accumulation assay. A CHO cell line stably expressing either human OX1 or OX2 receptor was used with the IPone HTRF assay kit (CisBio: Part #62[…]) to measure receptor activation. The assay was optimised to measure the ability (potency; fpKb) of antagonists to reduce agonist (orexin A)-induced inositol phosphate turnover. Briefly, cells were plated onto half area 96-well white walled plates at a density of 12,500 cells/well. Sixteen hours post-plating cell growth media was replaced with antagonist concentration-response curve diluted in stimulation buffer (supplied with the kit). Cells were incubated in a humidified incubator (37° C.) for 30 min before an EC80 challenge concentration ( 20 nM (OX1) and 40 nM (OX2)) of orexin A (Tocris catalogue number 1455). After 30 min stimulation in a humidified incubator (37° C.) the assay was terminated by the addition of detection mixture as per manufacturer's instructions. The concentration of compound which reduced orexin-A stimulated turnover of inositol phosphates by 50% (IC50) was calculated by fitting to a four parameter sigmoidal dose response curve. The IC50 values were converted to fpKB values using the orexin A pEC50 value estimated on each plate as well as the challenge concentration interpolated from the orexin A control curve.

[2] = target: T2, human OX2 receptor (Homo sapiens, UniProt O43614); assay: IPone accumulation assay, CHO cells expressing OX2 (antagonism of orexin A); type: cell-based; settings: CHO human OX2, orexin A EC80 challenge (40 nM), read-out: fpKb average OX2 (converted)
T2 sequence (O43614 1-444): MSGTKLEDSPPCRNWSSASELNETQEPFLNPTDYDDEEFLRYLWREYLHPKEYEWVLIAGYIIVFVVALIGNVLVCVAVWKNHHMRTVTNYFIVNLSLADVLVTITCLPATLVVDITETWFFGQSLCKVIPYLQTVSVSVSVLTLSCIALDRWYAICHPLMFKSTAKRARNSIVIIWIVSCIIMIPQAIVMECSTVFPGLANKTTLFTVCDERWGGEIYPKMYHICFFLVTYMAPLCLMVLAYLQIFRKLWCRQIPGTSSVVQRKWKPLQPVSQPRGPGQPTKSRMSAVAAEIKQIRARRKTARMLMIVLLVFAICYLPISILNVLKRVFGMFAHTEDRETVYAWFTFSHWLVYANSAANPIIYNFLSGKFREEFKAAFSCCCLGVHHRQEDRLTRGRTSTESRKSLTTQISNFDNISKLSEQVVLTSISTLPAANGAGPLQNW
Experimental: Generation of CHO stable cell lines expressing the human OX1R and OX2R. Stable cell lines for the human OX1R and OX2R receptors were generated through the transfection of CHO cells using the transfection reagent Genejuice (Novagen number 70967) and cDNA coding for either the human OX1R or OX2R. Cells were cultured in Sigma Nutrient Mixture F-12 Ham media (catalog number N6658) supplemented with 10% heat-inactivated FBS. Forty-eight hours after transfection, cells were harvested and placed under geneticin selection by culturing in Sigma Nutrient Mixture F-12 Ham media supplemented with 10% heat-inactivated FBS and geneticin (ThermoFisher Catalog number: 10131035). Selection of the final stable clone for each receptor was made on the basis of receptor expression, assay signal to noise and robustness though increasing passage. Selected clones for the human OX1R and OX2R were then frozen down into liquid nitrogen using Cell Freezing Medium-DMSO (Sigma-Aldrich catalog number: C6164).
IPone accumulation assay. A CHO cell line stably expressing either human OX1 or OX2 receptor was used with the IPone HTRF assay kit (CisBio: Part #62IPAPEJ) to measure receptor activation. The assay was optimised to measure the ability (potency; fpKb) of antagonists to reduce agonist (orexin A)-induced inositol phosphate turnover. Briefly, cells were plated onto half area 96-well white walled plates at a density of 12,500 cells/well. Sixteen hours post-plating cell growth media was replaced with antagonist concentration-response curve diluted in stimulation buffer (supplied with the kit). Cells were incubated in a humidified incubator (37° C.) for 30 min before an EC80 challenge concentration (˜20 nM (OX1) and 40 nM (OX2)) of orexin A (Tocris catalogue number 1455). After 30 min stimulation in a humidified incubator (37° C.) the assay was terminated by the addition of detection mixture as per manufacturer's instructions. The concentration of compound which reduced orexin-A stimulated turnover of inositol phosphates by 50% (IC50) was calculated by fitting to a four parameter sigmoidal dose response curve. The IC50 values were converted to fpKB values using the orexin A pEC50 value estimated on each plate as well as the challenge concentration interpolated from the orexin A control curve.

| Compound | Kb [1] | Kb [2] |
| --- | --- | --- |
| COCc1cc(F)c(CN2C(=O)N(c3cnc(C)c(C(C)(F)F)c3)CCc3c(F)cccc32)c(F)c1 [Example 33, 3-[5-(1,1-difluoroethyl)-6-methylpyridin-3-yl]-1-[2,6-difluoro-4-(methoxymethyl)benzyl]-6-fluoro-1,3,4,5-tetrahydro-2H-1,3-benzodiazepin-2-one] | 15.8 nM | 1000 nM |
| CCCc1cc(F)c(CN2C(=O)N(c3cnc(C)c(C(C)(F)F)c3)CCc3c(F)cccc32)c(F)c1 [Example 34, 3-[5-(1,1-difluoroethyl)-6-methylpyridin-3-yl]-1-(2,6-difluoro-4-propylbenzyl)-6-fluoro-1,3,4,5-tetrahydro-2H-1,3-benzodiazepin-2-one] | 79.4 nM | > 2510 nM |
| Cc1ncc(N2CCc3c(F)cccc3N(Cc3c(F)cc(Br)cc3F)C2=O)cc1OC(F)F [Example 37, 1-(4-bromo-2,6-difluorobenzyl)-3-[5-(difluoromethoxy)-6-methylpyridin-3-yl]-6-fluoro-1,3,4,5-tetrahydro-2H-1,3-benzodiazepin-2-one] | 20 nM | > 3980 nM |

Now from value to compound:

| Kb [1] | Kb [2] | Compound |
| --- | --- | --- |
| 39.8 nM | 794 nM | Cc1cc(C)c(S(C)(=O)=O)cc1N1CCc2ccccc2N(Cc2c(F)cc(OC(C)C)cc2F)C1=O [Example 30, 1-[2,6-difluoro-4-(propan-2-yloxy)benzyl]-3-[2,4-dimethyl-5-(methylsulfonyl)phenyl]-1,3,4,5-tetrahydro-2H-1,3-benzodiazepin-2-one] |
| 20 nM | > 316 nM | Cc1cc(C)c(S(C)(=O)=O)cc1N1CCc2c(F)cccc2N(Cc2c(F)cc(Br)cc2F)C1=O [Example 31, 1-(4-bromo-2,6-difluorobenzyl)-3-[2,4-dimethyl-5-(methylsulfonyl)phenyl]-6-fluoro-1,3,4,5-tetrahydro-2H-1,3-benzodiazepin-2-one] |
| 63.1 nM | > 631 nM | Cc1ncc(N2CCc3c(F)cccc3N(Cc3c(F)cc(Br)cc3F)C2=O)cc1C(C)(F)F [Example 32, 1-(4-bromo-2,6-difluorobenzyl)-3-[5-(1,1-difluoroethyl)-6-methylpyridin-3-yl]-6-fluoro-1,3,4,5-tetrahydro-2H-1,3-benzodiazepin-2-one] |
